Laboratory results as given in ChEMBL document CHEMBL1201862, “PubChem BioAssay data set” (2004).
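A five-concentration, 48-hour dose response in 96-well plates underlies each endpoint, interpolated linearly between surrounding concentrations. At the GI50, growth is halved.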 The source made the active and inactive calls. No stated cut-off is given here; in the data, active = GI50 up to about 1.1 µM and inactive = higher.

Assays:
Test in all cases: DTP human tumour cell line panel, 48 h
HCT-15 = system: HCT-15
SR = system: SR
BT-549 = system: BT-549
SK-MEL-2 = system: SK-MEL-2
K562 = system: K562
IGROV-1 = system: IGROV-1
COLO 205 = system: COLO 205
MDA-MB-231 = system: MDA-MB-231
UO-31 = system: UO-31
SN12C = system: SN12C
EKVX = system: EKVX
HL-60 = system: HL-60
786-0 = system: 786-0
OVCAR-3 = system: OVCAR-3
HOP-62 = system: HOP-62
SNB-75 = system: SNB-75
NCI-H460 = system: NCI-H460
MDA-MB-435 = system: MDA-MB-435
HOP-92 = system: HOP-92
T47D = system: T47D

Measured: GI50

CN(C)c1ccc(C(N)=O)cn1
inactive: SR > 100 µM | BT-549 > 100 µM | SK-MEL-2 > 100 µM | K562 > 100 µM | IGROV-1 > 100 µM | COLO 205 > 100 µM | MDA-MB-231 > 100 µM | UO-31 > 100 µM | SN12C > 100 µM | EKVX > 100 µM | HL-60 > 100 µM | 786-0 > 100 µM | OVCAR-3 > 100 µM | HOP-62 > 100 µM | SNB-75 > 100 µM | NCI-H460 > 100 µM | MDA-MB-435 > 100 µM
> 100 µM: HCT-15

CC(/C=C/C=C/C=C/C=C/C=C/C(=O)C1=C(O)C(CCC(=O)O)N(C)C1=O)=C\C(C)C(OC1CC(O)C(O)C(C)O1)C(C)C (stereo not drawn)
3.68 µM: HCT-15
inactive: SR 3.85 µM | BT-549 2.11 µM | SK-MEL-2 1.78 µM | K562 3.71 µM | IGROV-1 1.82 µM | COLO 205 2.18 µM | MDA-MB-231 2.9 µM | UO-31 3.3 µM | SN12C 3.33 µM | HOP-92 2.72 µM | EKVX 3.31 µM | HL-60 2.43 µM | 786-0 3.15 µM | OVCAR-3 1.98 µM | HOP-62 1.87 µM | SNB-75 3.89 µM | NCI-H460 2.96 µM | MDA-MB-435 3 µM

Nc1ccccc1C#CC(=O)c1cccc(C(F)(F)F)c1
inactive: SR 2.27 µM | SK-MEL-2 1.18 µM | K562 3.01 µM | COLO 205 1.89 µM | MDA-MB-231 1.95 µM | T47D 4.03 µM | UO-31 1.29 µM | SN12C 2.06 µM | HOP-92 1.99 µM | EKVX 16.3 µM | HL-60 6.07 µM | 786-0 2.1 µM | OVCAR-3 3.78 µM | HOP-62 7.24 µM | SNB-75 14.1 µM | NCI-H460 19.3 µM | MDA-MB-435 2.52 µM
active: IGROV-1 0.258 µM

COc1ccc2c(c1)OCc1c-2oc2ccccc2c1=O
> 100 µM: HCT-15
inactive: SR > 100 µM | BT-549 > 100 µM | SK-MEL-2 > 100 µM | K562 > 100 µM | IGROV-1 75.2 µM | COLO 205 > 100 µM | MDA-MB-231 30.1 µM | UO-31 > 100 µM | SN12C > 100 µM | HOP-92 > 100 µM | EKVX > 100 µM | 786-0 45.7 µM | OVCAR-3 > 100 µM | HOP-62 53.7 µM | SNB-75 34.5 µM | MDA-MB-435 > 100 µM

C[C@@H](C[C@@H](O)[C@H](O)C(C)(C)O)[C@H]1CC=C2[C@]3(C)[C@H](O)C[C@H]4C(C)(C)[C@H](O)CC[C@]4(C)[C@H]3CC[C@@]21C
14.7 µM: HCT-15
inactive: SR 21.9 µM | BT-549 17.1 µM | SK-MEL-2 14 µM | K562 15.7 µM | IGROV-1 16.3 µM | COLO 205 13.7 µM | MDA-MB-231 13.8 µM | UO-31 15.4 µM | SN12C 15.7 µM | HOP-92 13.9 µM | EKVX 12.3 µM | HL-60 14.2 µM | 786-0 15 µM | OVCAR-3 13.3 µM | HOP-62 15 µM | SNB-75 17.6 µM | NCI-H460 15.8 µM | MDA-MB-435 16.4 µM

Cn1c(Nc2ccccc2)c(/C=N\c2ccccc2)c(=O)n(C)c1=O
inactive: BT-549 > 100 µM | SK-MEL-2 > 100 µM | K562 > 100 µM | IGROV-1 38.3 µM | MDA-MB-231 61.4 µM | UO-31 54.2 µM | SN12C 69.3 µM | HOP-92 41.7 µM | HL-60 > 100 µM | 786-0 65.3 µM | OVCAR-3 > 100 µM | HOP-62 22.5 µM | NCI-H460 56.2 µM | MDA-MB-435 > 100 µM

CCSc1cc(C(=O)OC)c2n(c1=O)CCCC2
inactive: BT-549 > 100 µM | SK-MEL-2 > 100 µM | IGROV-1 > 100 µM | COLO 205 > 100 µM | MDA-MB-231 > 100 µM | T47D > 100 µM | UO-31 > 100 µM | SN12C > 100 µM | EKVX > 100 µM | HL-60 > 100 µM | 786-0 > 100 µM | HOP-62 > 100 µM | SNB-75 > 100 µM | MDA-MB-435 > 100 µM
> 100 µM: HCT-15

Nc1nc(Cl)c(/C=N\O)c(NCC2(CO)CCC2)n1
inactive: SR 11.6 µM | BT-549 32.6 µM | K562 14 µM | IGROV-1 > 10 µM | COLO 205 30.3 µM | MDA-MB-231 51.2 µM | UO-31 19.9 µM | SN12C 68.4 µM | HOP-92 19.6 µM | EKVX 17.3 µM | HL-60 > 10 µM | 786-0 41.7 µM | OVCAR-3 24.2 µM | HOP-62 30.6 µM | SNB-75 59.3 µM | NCI-H460 32.1 µM | MDA-MB-435 40.2 µM
60.8 µM: HCT-15

O=c1ccn(Cc2ccccc2CCl)c(=O)[nH]1
inactive: SR 27.7 µM | SK-MEL-2 32.7 µM | K562 34.8 µM | IGROV-1 24.3 µM | COLO 205 27.2 µM | T47D 43.9 µM | UO-31 29.3 µM | SN12C 27.6 µM | HOP-92 57.9 µM | EKVX 25.4 µM | HL-60 37.2 µM | 786-0 20.7 µM | OVCAR-3 22.3 µM | HOP-62 25.7 µM | SNB-75 45.2 µM | NCI-H460 > 100 µM | MDA-MB-435 28.9 µM
18.4 µM: HCT-15

O=C(NNS(=O)(=O)c1ccc(Br)cc1)c1ccc(Cl)cc1NC(=O)C12CC3CC(CC(C3)C1)C2
15.6 µM: HCT-15
inactive: SR 12.4 µM | BT-549 16.7 µM | SK-MEL-2 11.8 µM | K562 6.34 µM | IGROV-1 11.9 µM | COLO 205 12 µM | T47D 15.2 µM | UO-31 11.7 µM | SN12C 18.9 µM | HOP-92 12.2 µM | EKVX 11.3 µM | HL-60 18.9 µM | 786-0 19.5 µM | OVCAR-3 11.6 µM | HOP-62 19.8 µM | SNB-75 14.2 µM | NCI-H460 8.34 µM | MDA-MB-435 12.4 µM

CCCCCCCCCCCCCCCCNc1ccn(C2CC(OP(=O)(O)OCC3OC(n4cc(CC)c(=O)[nH]c4=O)CC3O)C(CO)O2)c(=O)n1 (stereo not drawn)
inactive: SR 22.4 µM | SK-MEL-2 19.4 µM | K562 20.4 µM | IGROV-1 41.5 µM | COLO 205 26 µM | MDA-MB-231 35.2 µM | T47D 44.2 µM | UO-31 19.2 µM | SN12C 41.5 µM | HOP-92 48.4 µM | EKVX 43 µM | HL-60 4.66 µM | 786-0 83.2 µM | OVCAR-3 38.3 µM | HOP-62 23.4 µM | SNB-75 23.3 µM | MDA-MB-435 46.9 µM
28.1 µM: HCT-15

O=c1c2ccc(S(=O)(=O)c3ccc4c(=O)n5c6ccccc6nc5c5cccc3c45)c3cccc(c32)c2nc3ccccc3n12
93.5 µM: HCT-15
inactive: BT-549 20 µM | SK-MEL-2 21.3 µM | IGROV-1 1.98 µM | COLO 205 > 100 µM | MDA-MB-231 19.4 µM | T47D 36.6 µM | UO-31 39.9 µM | SN12C > 100 µM | EKVX 43.9 µM | 786-0 29.5 µM | OVCAR-3 > 100 µM | HOP-62 37.8 µM | NCI-H460 > 100 µM | MDA-MB-435 > 100 µM

FC(F)(F)C1(C(F)(F)F)OC(Cl)(Cl)C(Cl)(Cl)O1
> 10 µM: HCT-15
inactive: BT-549 > 10 µM | SK-MEL-2 > 10 µM | IGROV-1 > 10 µM | COLO 205 > 10 µM | MDA-MB-231 > 10 µM | T47D > 10 µM | HOP-92 > 10 µM | EKVX > 10 µM | 786-0 > 10 µM | OVCAR-3 > 10 µM | HOP-62 > 10 µM | NCI-H460 > 10 µM | MDA-MB-435 > 10 µM

CCC(=O)NCCc1c2c3c(ccnc3c3ncsc13)-c1ccccc1N2 [KUANONIAMINE C]
2.51 µM: HCT-15
inactive: BT-549 2.69 µM | SK-MEL-2 43.2 µM | K562 1.53 µM | IGROV-1 2.81 µM | COLO 205 1.45 µM | MDA-MB-231 4.02 µM | T47D 6.75 µM | EKVX 5.22 µM | OVCAR-3 10.5 µM | HOP-62 2.94 µM | SNB-75 6.89 µM | NCI-H460 1.16 µM | MDA-MB-435 2.26 µM
active: UO-31 0.53 µM | SN12C 0.724 µM | HL-60 0.845 µM | 786-0 0.791 µM

CCOC(=O)C(=[N+]=[N-])C(=O)CN1C(=O)C2CC(C)=C(C)CC2C1O (stereo not drawn)
inactive: SR > 100 µM | BT-549 > 100 µM | SK-MEL-2 > 100 µM | K562 > 100 µM | IGROV-1 > 100 µM | COLO 205 > 100 µM | UO-31 > 100 µM | EKVX > 100 µM | HL-60 > 100 µM | 786-0 > 100 µM | OVCAR-3 > 100 µM | HOP-62 > 100 µM | SNB-75 > 100 µM | NCI-H460 > 100 µM | MDA-MB-435 > 100 µM

C=C1CCC([N+](=O)[O-])[C@](C)(N=O)CC[C@@H]2C1CC2(C)C (stereo partly drawn)
inactive: SR 8.57 µM | BT-549 14.4 µM | SK-MEL-2 > 10 µM | K562 17.3 µM | IGROV-1 24.4 µM | COLO 205 28.1 µM | UO-31 16.3 µM | SN12C 32.4 µM | HOP-92 19.9 µM | EKVX 19 µM | HL-60 5.43 µM | 786-0 20.6 µM | OVCAR-3 23.6 µM | HOP-62 38.3 µM | SNB-75 18.9 µM | NCI-H460 19.1 µM | MDA-MB-435 > 10 µM
22.8 µM: HCT-15
